Data set [1] has as its system KA-induced neurobehavioral activities and death in mice. The data set is described as follows: Neurobehavioral activities and death induced by kainic acid in mice. In kind it is in vivo, mice (male CD2-FI). Conditions: for Incidence, Seizures / Incidence, Tail arch / Incidence, Tremors / Incidence, Death (death rate): KA 40 mg/kg s.c., compound I or melatonin 5 mg/kg i.p. 10 min before KA, n=15; for Incidence, Seizures / Incidence, Tail arch / Incidence, Tremors: 4 h observation. The procedure:
(§1) Kainic acid (KA) was employed to test the in vivo free radical scavenging and antioxidant activities of compound I. KA is an excitatory neurotoxin which destroys neuronal cells by free radical generation (Coyle and Schwarcz, Nature 263: 244-246 1976). Male CD2-FI mice (26-30 g) were chosen as the experimental subject. The mice were housed in windowless room with automatically regulated temperature 22±2° C. and 14 h light/10 h dark cycle. The mice received standard laboratory chow and water ad libitum. The mice were randomized into 4 groups.
Immediately following the injections, neurobehavioral changes were monitored. The observation period extended for 4 hours following the injections. The death rate at 48 hours was recorded. […] By contrast, all of the mice that received KA developed some neurobehavioral changes including arching of tail, tremors and seizures. The death rate in this group was 33%. […] Tremors and seizures decreased from 100% in the KA-treated mice to 40% (p=0.001), respectively,and the death rate was reduced to 20%.

In data set [2] the test system is brain lipid proxidation (MDA+4-HDA) in cerebral cortex. The data set is described as follows: Brain oxidative damage test: lipid peroxidation product (LPO; MDA+4-HDA) in cerebral cortex of KA-treated mice. In kind it is in vivo, mice (male CD2-FI). The following applies: for level of LPO in brain (in words): KA 40 mg/kg s.c. plus compound I or melatonin 5 mg/kg i.p., 48 h, FIG. 5. The procedure:
as §1
Forty-eight hours after treatment, 5 mice of each group were sacrificed and the cerebral cortex was excised and immediately placed on dry ice and stored at -80° C. for the lipid prooxidation product (LPO) assay. LPO is the most commonly used index of free radical damage and the assay used to measure the level of LPO is described in a kit avaliable from Calbiochem (LA Jolla, Calif.). LPO was expressed as malondialdehyde (MDA) and 4-hydroxyalkenals (4-HDA)/mg protein. The level of LPO in the cerebral cortex of mice in the control group was 3.47=0.18 nmol/mg protein; in KA injected mice the level of LPO was increased to 4.42=0.11 nmol/mg protein. This increase, when compared to the control mice, was great than 27% (p<0.05).

Data set [3] deals with pyramidal neurons in the hippocampal CA3 area. The data set is described as follows: Morphological observations of hippocampus of KA-treated mice (light microscopy). In kind it is in vivo, mice (male CD2-FI). Conditions: seven days following treatment; KA 40 mg/kg s.c. with or without 5 mg/kg compound I or melatonin; hematoxylin and eosin. On the procedure:
as §1
Seven days following the treatment, representive mice in each of the groups mentioned above were sacrificed. The brains were immersed in normal fixation buffer. The hippocampi and surrounding tissue were dissected from the whole brain, cut and stained with hematoxylin and eosin. The morphological assessment of neuronal damage was determined by using light microscopy. In the brains of control mice no visible neuronal damage was observed. […] The induced neuronal damage was concentrated in the hippocampal CA3 area. The total histological architecture of CA3 area was altered. Virtually all of the pyrimadal neurons in this area were destroyed. The cell membranes appeared to have disintegrated and the nuclei of the cells were condensed and pyknotic. These changes are consistent with cell death. […] Few damaged neurons were observed microcopically in this area in these two groups (FIG. 6).

The conditions of data set [4]: background statement; cited from earlier work.
Data set [5] concerns experimental animal life span. The following applies: Pierpaoli and Regelson, Proc. Natl. Acad. Sci. USA 91: 787-791 1994; up to; cited from earlier work.
The nature of data set [6]: Hydroxyl radical scavenging: DMPO-HO. adduct formation (H2O2 + UV) measured by HPLC-EC. It is filed as biochemical. From the text:
The hydroxyl radical (HO^.cndot.) is the most reactive and cytotoxic species among free radicals. […] Because of its high reactivity, HO^.cndot. once formed either in vitro or in vivo lasts for a very short time (half life about 10^-9 s) and, therefore, HO^.cndot. cannot be measured directly. However, by using a spin trapping agent, in this case 5,5-dimethylpyrroline-N-oxide (DMPO), an adduct (DMPO-HO^.cndot.) is formed between the spin trapping agent and the HO^.cndot.. The adducts have a longer half life and therefore they can be more readily quantified.
When DMPO is incubated in this system the DMPO will traps the HO^.cndot. to form a relatively stable DMPO- HO^.cndot. adduct.
HO^.cndot. +DMPO→DMPO-HO^.cndot.
In the present study, the DMPO-HO^.cndot. adduct was detected by an electro-chemical (EC) detector attached to a high performance liquid chromatography (HPLC) system. […] The applied potential was 1.0 volt and volume of the injected sample was 20 μl.

SMILES strings stand for the structures. Entries after “also recorded” stand apart in the source; their conditions may differ.

As to `COc1ccc2[nH]cc(CCNC(C)=O)c2c1` [melatonin], in data set [1], the “Incidence, Seizures” value came out at 40%; the “Incidence, Tail arch” value is given as 33%; the “Incidence, Tremors” value was found to be 40%. In addition, the “Incidence, Death (death rate)” value in data set [1] (at 48 hours) is on record as 20%. The “level of LPO in brain (in words)” value in data set [2] is given as “reduced to control levels”. For the same molecule, the “morphological assessment of neuronal damage, hippocampal CA3 area” value (“morphological assessment” below) in data set [3] is recorded as “No obviously neuronal damage is observed; also recorded: the hippocampal CA3 area of the brain was still intact”. Also, the “biological half life in the blood” value in data set [4] was 20-40 min. Also, the “prolongation of experimental animal life span” value in data set [5] is given as “up to 27%”.
Regarding `COc1cc2[nH]cc(CCNC(C)=O)c2cc1OC` [Compound I, N-acetyl-5,6-dimethoxytryptamine], the “suppression of DMPO-HO. adduct formation (in words)” value in data set [6] (compared with melatonin, FIG. 3, dose-response, FIG. 4) is “efficacy is greater than that of melatonin”. In addition, the IC50 in data set [6] (read-out: IC50 (concentration required to produce 50% inhibition of the DMPO-HO. formation), H2O2 + UV (254 nm), DMPO spin trap, HPLC-EC) amounted to 15 µM. In data set [1], the “Incidence, Seizures” value is 20%; the “Incidence, Tail arch” value is reported as 40%; the “Incidence, Tremors” value is listed as 40%. The “Death (in words)” value in data set [1] (at 48 hours, KA 40 mg/kg s.c. plus compound I 5 mg/kg i.p.) is “none of them died”. The “Incidence, Death (death rate)” value in data set [1] (at 48 hours) is given as 0%. Further, the “level of LPO in brain (in words)” value in data set [2] is “reduced to control levels”. In data set [3], the “morphological assessment” value is “No obviously neuronal damage is observed; also recorded: the hippocampal CA3 area of the brain was still intact”.
On to `C=C(C)[C@H]1CN[C@H](C(=O)O)[C@H]1CC(=O)O` [KA], for which, in data set [1], the “Incidence, Seizures” value was 100%; the “Incidence, Tail arch” value worked out at 86%; the “Incidence, Tremors” value worked out at 100%. Further, the “Incidence, Death (death rate)” value in data set [1] (at 48 hours) stood at 33%. For the same molecule, the “increase of LPO level compared to control mice” value in data set [2] (48 h after KA 40 mg/kg s.c., p<0.05) is reported as above 27%. Further, the “morphological assessment” value in data set [3] is “The morphological architecture of neurons in the hippocampal CA3 region were destroyed; also recorded: the pyramidal neurons of the hippocampus were severely damaged”.

Values taken from patent publication US6114373A, “N-acetyl-5,6-dimethoxytryptamine and its free radical scavenging activity” (priority 1998, dated 2000).
